Reference: ChEMBL document CHEMBL1201862, “PubChem BioAssay data set” (2004)
Activity calls are given as the source filed them.

What was measured:
[1] = system: Streptococcus sp. 'group A'; assay: growth inhibition of control SK(-) GAS strain, dose response, counter-screen for streptokinase expression inhibitor project, luminescence, kanamycin, BacTiterGlo, confirmation (AID 1900); format: functional, organism-based
[2] = target: T1, Tyrosine-protein phosphatase non-receptor type 7 (Homo sapiens, UniProt P35236); format: functional
T1 sequence (P35236 whole entry): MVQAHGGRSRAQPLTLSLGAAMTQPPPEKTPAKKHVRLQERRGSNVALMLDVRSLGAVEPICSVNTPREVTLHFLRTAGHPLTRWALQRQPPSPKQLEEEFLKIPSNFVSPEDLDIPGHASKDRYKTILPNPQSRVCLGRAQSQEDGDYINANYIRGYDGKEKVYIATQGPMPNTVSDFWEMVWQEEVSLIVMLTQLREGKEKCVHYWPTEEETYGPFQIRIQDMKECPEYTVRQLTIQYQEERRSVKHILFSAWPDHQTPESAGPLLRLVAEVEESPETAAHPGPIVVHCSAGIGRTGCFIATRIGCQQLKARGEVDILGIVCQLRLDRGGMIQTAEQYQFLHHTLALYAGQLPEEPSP

[3] = target: T2, Sentrin-specific protease 6 (Homo sapiens, UniProt Q9GZR1); format: functional;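 also: Luminescence-based dose-response confirmatory assay of SENP6 inhibition, following up an ultra-high-throughput screen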
T2 sequence (Q9GZR1 whole entry): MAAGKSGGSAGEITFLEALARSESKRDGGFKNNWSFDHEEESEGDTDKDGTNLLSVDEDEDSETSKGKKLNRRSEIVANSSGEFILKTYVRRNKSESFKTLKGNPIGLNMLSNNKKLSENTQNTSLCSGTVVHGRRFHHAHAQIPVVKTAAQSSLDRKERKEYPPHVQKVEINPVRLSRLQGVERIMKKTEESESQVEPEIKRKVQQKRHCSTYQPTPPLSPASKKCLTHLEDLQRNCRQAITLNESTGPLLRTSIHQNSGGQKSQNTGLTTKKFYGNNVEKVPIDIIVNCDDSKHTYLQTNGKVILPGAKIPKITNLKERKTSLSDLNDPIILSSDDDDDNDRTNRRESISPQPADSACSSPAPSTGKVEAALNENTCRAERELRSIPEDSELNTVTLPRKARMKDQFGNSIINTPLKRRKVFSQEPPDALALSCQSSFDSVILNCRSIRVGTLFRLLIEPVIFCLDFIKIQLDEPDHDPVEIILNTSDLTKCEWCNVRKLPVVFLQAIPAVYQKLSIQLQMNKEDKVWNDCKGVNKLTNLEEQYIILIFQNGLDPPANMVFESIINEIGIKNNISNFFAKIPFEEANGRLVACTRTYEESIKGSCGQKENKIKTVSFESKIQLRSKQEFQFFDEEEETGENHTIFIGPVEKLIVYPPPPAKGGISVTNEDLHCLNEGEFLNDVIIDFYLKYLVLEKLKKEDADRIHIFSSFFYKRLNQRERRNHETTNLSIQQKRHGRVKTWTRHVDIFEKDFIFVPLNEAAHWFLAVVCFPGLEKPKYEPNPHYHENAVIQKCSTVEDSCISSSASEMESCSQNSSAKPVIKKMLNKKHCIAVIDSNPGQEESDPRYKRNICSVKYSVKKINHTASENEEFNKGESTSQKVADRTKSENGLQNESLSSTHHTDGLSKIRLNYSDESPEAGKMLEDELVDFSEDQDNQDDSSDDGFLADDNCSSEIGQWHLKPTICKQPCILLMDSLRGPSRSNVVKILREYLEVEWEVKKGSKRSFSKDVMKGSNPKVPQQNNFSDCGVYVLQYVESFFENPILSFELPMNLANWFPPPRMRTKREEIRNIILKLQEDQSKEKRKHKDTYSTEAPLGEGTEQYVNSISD

[4] = target: Ras and Rab interactor 1/Tyrosine-protein kinase ABL1 (Homo sapiens, UniProt P00519+Q13671); format: functional;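 also: biochemical TR-FRET dose-response test measuring inhibition of binding between Rin1 and Abl proteins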
[5] = cytotoxicity toward NIH3T3 fibroblasts, dose response, counter-screen, cell-based, ATP luminescence, mouse fibroblasts (AID 2010); format: functional;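 also: cells exposed to compound for about 90 hours before reading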
[6] = system: INS1; assay: beta cell apoptosis inhibitors, cytokine rescue, dose response, luminescence, retest (AID 449756); format: functional, cell-based; conditions: Rattus norvegicus;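 also: cell death triggered by IL-1 beta plus TNF-alpha plus IFN-gamma mixture; protective hits raise ATP signal compared with cytokine alone wells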
[7] = target: T3, Replicative DNA helicase DnaB (Mycobacterium tuberculosis, UniProt P9WMR3); assay: DnaB intein splicing inhibitors, dose response, biochemical, cell-free fluorescence (AID 449749); format: functional
T3 sequence (P9WMR3 whole entry): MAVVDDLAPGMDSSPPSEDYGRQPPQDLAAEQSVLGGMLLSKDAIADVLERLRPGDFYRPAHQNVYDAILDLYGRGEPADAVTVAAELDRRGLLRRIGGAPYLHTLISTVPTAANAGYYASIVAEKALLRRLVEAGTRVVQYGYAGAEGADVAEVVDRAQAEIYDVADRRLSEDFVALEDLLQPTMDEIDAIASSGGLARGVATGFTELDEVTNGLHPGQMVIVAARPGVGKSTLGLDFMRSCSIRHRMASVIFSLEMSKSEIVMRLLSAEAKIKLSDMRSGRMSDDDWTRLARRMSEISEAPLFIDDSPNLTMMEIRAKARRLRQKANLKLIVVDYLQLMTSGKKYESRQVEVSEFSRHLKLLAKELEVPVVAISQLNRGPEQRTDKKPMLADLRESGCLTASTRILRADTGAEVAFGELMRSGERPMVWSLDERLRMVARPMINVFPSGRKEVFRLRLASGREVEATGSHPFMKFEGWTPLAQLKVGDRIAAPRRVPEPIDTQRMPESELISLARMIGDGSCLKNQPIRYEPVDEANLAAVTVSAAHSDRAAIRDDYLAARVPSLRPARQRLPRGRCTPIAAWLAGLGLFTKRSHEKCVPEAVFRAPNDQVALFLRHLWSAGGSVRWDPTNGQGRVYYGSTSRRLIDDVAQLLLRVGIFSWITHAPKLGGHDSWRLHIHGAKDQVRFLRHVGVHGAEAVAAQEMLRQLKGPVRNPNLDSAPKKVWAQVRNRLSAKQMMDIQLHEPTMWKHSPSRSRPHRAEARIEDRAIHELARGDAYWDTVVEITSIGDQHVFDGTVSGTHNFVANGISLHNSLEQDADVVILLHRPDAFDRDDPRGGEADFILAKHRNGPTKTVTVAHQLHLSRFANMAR

[8] = target: T4, Dual specificity protein phosphatase 3 (Homo sapiens, UniProt P51452); assay: VHR1 phosphatase inhibitors, biochemical (AID 1878)
[9] = target: T1, Tyrosine-protein phosphatase non-receptor type 7; assay: redox-dependent HePTP inhibition, mechanism study, biochemical, fluorescence (AID 2068); format: functional
[10] = system: HeLa; assay: HeLa cell cytotoxicity, dose response, cytotoxicity control, 24 h, cherry-picked samples (AID 504726); format: functional, cell-based; conditions: Homo sapiens;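 also: potency for cytotoxicity as loss of luminescence signal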
[11] = target: T4, Dual specificity protein phosphatase 3; assay: SAR VHR1 absorbance Assay for In Vitro dose response studies. [Related pubchem assays (depositor defined):AID1654, AID1661, AID1878, AID1992, AID2004]

T4 sequence (P51452 whole entry): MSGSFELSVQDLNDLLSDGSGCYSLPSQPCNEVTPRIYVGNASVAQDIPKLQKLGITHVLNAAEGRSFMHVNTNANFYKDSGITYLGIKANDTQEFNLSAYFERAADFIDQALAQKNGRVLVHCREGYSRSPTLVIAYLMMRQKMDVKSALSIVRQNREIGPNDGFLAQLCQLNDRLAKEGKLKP
Ras and Rab interactor 1/Tyrosine-protein kinase ABL1, sequence (P00519 whole entry): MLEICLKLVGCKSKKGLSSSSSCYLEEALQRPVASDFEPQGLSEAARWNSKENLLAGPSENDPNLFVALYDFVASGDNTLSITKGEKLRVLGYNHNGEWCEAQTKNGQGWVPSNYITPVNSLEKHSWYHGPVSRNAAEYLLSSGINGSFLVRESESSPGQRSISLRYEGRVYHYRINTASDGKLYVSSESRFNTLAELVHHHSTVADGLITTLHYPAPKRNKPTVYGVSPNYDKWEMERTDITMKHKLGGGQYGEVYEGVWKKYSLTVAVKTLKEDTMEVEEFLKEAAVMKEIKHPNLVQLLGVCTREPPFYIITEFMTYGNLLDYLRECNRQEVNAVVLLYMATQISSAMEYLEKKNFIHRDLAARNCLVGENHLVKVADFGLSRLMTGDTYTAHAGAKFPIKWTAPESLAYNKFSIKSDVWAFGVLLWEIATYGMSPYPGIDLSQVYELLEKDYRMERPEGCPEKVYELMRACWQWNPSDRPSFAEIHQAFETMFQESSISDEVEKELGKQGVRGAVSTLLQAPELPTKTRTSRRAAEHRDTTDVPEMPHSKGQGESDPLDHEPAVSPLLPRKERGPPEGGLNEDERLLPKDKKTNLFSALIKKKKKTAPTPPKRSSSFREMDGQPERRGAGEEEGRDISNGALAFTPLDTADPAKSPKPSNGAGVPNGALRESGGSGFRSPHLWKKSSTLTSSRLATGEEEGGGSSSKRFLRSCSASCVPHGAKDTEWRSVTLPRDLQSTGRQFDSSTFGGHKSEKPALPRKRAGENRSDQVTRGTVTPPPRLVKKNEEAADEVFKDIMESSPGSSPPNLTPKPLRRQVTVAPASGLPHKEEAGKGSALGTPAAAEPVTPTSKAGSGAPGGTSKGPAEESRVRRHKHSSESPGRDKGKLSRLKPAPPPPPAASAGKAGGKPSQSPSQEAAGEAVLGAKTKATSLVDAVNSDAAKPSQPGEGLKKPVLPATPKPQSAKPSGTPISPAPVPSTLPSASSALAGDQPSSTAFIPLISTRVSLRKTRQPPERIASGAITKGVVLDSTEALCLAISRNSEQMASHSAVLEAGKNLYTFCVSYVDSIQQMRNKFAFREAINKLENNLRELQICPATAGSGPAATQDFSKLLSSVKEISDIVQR
Ras and Rab interactor 1/Tyrosine-protein kinase ABL1, sequence (Q13671 whole entry): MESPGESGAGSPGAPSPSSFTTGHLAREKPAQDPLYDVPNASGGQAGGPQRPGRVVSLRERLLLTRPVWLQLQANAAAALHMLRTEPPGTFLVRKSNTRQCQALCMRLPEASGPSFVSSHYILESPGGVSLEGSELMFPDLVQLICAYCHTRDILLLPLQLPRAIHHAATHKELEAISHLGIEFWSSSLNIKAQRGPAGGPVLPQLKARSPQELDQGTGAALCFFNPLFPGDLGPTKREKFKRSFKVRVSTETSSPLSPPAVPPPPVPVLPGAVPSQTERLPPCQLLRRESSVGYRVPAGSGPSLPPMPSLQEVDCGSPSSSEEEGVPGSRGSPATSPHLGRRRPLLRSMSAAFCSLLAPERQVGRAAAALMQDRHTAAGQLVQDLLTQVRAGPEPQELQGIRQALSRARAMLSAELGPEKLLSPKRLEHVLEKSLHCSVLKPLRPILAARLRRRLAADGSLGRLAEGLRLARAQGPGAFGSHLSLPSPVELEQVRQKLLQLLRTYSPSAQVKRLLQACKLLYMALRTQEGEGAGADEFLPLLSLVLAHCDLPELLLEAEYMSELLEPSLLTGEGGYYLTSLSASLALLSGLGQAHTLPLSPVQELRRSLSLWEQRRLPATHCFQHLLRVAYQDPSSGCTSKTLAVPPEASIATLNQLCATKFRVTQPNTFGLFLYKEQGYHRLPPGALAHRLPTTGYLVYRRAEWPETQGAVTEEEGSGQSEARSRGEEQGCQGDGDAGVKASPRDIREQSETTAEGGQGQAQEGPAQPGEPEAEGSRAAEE

With O=C1c2ccccc2C(=O)c2[nH]c(O)nc21 the EC50 [1] was 4.23 µM (active).
In the case of N#Cc1c(N2CCCC2)nc(N)c2c(N)nc(N3CCCC3)cc12, the IC50 [2] is reported as 74.3 µM (active).
In the case of CCOC(=O)C1=C(C)OC2(O)c3ccccc3C(=O)C12O (stereo unspecified), the IC50 [3] is reported as 2.7 µM (active) and the IC50 [4] is reported as 11.1 µM (inactive).
With COC(=O)c1cc(C)nc2c1C(=O)C(=O)C=C2N1CCOCC1 the EC50 [5] was > 16 µM (not active), the AC50 [6] was 2.71 µM (active) and the AC50 [7] was 1.36 µM (active).
With NS(=O)(=O)c1cc(C(=O)NC2CCSc3ccccc32)ccc1Cl (stereo unspecified) the IC50 [8] was < 1.23 µM (inactive), the IC50 [9] was 0.066 µM (active) and the AC50 [10] was > 350 µM (inactive). For the same molecule, the IC50 [11] was 0.121 µM (active).
